US20080234262A1 (Wyeth, priority 2007, published 2008)
Like-named read-outs stand apart in the source and are kept apart here.

Key:
[1] = biological target: PI3K (Homo sapiens, UniProt P42336); assay: Fluorescence polarization assay for PI3K; assay type: biochemical;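 also: PI3K kinase reaction on PIP2 with ATP, 30-60 min, product sensed by GST-GRP with red probe in fluorescence polarization (mP), controls without enzyme and at zero time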
[2] = tested on: prostate line LNCap; assay: In vitro cell culture growth assay (MTS), LNCap; assay type: cell-based, human; conditions: LNCap cells, three days after drug treatment;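 also: viable cell density read by absorbance at 490 nm, growth expressed as percent of vehicle-treated cells on the same plate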
[3] = tested on: breast line MDA468; assay: In vitro cell culture growth assay (MTS), MDA468; assay type: cell-based, human; conditions: MDA468 cells, three days after drug treatment
In short: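 Three-day drug treatment starting 1 day post-plating; viable cells quantified via MTS metabolism (A490); effect normalised to in-plate vehicle controls as % growth.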

Sequence of PI3K (P42336 whole entry): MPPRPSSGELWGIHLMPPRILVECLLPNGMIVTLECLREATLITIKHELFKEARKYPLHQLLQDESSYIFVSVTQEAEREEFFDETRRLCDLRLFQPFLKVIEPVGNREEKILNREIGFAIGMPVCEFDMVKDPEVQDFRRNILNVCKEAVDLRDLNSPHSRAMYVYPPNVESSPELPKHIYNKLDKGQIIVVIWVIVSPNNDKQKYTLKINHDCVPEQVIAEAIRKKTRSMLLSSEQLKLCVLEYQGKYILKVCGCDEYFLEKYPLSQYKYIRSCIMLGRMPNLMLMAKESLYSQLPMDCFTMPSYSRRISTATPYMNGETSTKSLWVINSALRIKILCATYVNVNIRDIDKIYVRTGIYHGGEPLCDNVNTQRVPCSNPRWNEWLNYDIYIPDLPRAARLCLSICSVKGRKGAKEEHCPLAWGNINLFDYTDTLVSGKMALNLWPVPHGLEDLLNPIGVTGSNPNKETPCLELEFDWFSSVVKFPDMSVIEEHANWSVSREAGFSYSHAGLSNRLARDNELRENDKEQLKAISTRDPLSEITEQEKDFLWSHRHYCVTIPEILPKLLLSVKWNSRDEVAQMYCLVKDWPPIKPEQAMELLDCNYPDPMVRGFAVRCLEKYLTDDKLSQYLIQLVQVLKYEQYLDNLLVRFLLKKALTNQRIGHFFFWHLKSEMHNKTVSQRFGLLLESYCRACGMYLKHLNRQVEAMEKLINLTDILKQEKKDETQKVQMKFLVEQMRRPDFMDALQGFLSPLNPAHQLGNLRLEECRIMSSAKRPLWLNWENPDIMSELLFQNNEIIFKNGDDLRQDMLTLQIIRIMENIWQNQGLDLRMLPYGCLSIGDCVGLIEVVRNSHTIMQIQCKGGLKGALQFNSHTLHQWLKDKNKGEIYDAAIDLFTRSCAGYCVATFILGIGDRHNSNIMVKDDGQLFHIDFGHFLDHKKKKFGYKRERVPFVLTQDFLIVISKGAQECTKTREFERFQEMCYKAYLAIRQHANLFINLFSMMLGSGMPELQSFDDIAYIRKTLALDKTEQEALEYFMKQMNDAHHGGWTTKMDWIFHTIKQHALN
Sequence of PI3K (P27986 whole entry partner): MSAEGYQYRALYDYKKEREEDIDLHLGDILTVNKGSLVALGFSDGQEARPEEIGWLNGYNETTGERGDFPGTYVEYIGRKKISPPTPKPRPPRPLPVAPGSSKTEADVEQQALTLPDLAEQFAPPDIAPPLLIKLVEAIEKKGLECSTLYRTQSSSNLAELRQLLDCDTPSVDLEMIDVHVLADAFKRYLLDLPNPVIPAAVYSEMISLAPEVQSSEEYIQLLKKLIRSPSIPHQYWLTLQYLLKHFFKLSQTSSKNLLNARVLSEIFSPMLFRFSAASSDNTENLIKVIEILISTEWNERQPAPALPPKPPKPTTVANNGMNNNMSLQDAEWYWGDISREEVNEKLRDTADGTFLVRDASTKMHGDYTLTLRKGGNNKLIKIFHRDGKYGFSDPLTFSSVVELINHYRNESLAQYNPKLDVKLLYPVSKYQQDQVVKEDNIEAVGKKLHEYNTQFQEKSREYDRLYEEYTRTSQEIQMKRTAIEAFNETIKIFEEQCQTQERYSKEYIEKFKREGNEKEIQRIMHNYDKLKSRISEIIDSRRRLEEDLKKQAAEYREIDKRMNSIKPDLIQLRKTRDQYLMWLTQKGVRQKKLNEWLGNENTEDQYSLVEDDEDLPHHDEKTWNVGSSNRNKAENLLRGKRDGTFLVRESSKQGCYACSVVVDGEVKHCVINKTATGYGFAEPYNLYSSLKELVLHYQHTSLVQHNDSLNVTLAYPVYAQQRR

| Compound | IC50 ([1]; PI3Kα, read-out: PI3Kα IC50) [nM] | IC50 ([2]; Homo sapiens, LNCaP, 72 h) [nM] | IC50 ([3]; Homo sapiens, 72 h) [nM] | IC50 [2] [nM] | IC50 [3] [nM] | IC50 ([1]; PI3Kα IC50, PI3Kα) [nM] | IC50 ([2]; Homo sapiens, 72 h) [nM] |
| --- | --- | --- | --- | --- | --- | --- | --- |
| CC(C)N1CCC(n2ncc3c(N4CCOCC4)nc(-c4ccc5[nH]ccc5c4)nc32)CC1 [Compound 488, 6-(1H-indol-5-yl)-1-(1-isopropylpiperidin-4-yl)-4-morpholin-4-yl-1H-pyrazolo[3,4-d]pyrimidine] | 3750 | 2500 | 2900 |  |  |  |  |
| CNC(=O)Nc1ccc(-c2nc(N3CCOCC3)c3cnn(C4CCN(C(=O)c5ccc(Cl)nc5)CC4)c3n2)cc1 [Compound 668, 1-[4-(1-{1-[(6-chloropyridin-3-yl)carbonyl]piperidin-4-yl}-4-morpholin-4-yl-1H-pyrazolo[3,4-d]pyrimidin-6-yl)phenyl]-3-methylurea] | 84 |  |  | 150 | 410 |  |  |
| COC(=O)N1CCC(n2ncc3c(N4CCOCC4)nc(-c4ccc(NC(=O)Oc5ccccc5F)cc4)nc32)CC1 [Compound 866, methyl 4-[6-(4-{[(2-fluorophenoxy)carbonyl]amino}phenyl)-4-morpholin-4-yl-1H-pyrazolo[3,4-d]pyrimidin-1-yl]piperidine-1-carboxylate] |  |  | 30000 |  |  | 12000 | 12000 |
| CNC(=O)Nc1ccc(-c2nc(N3CCOCC3)c3cnn(CC(F)(F)F)c3n2)cc1 [Compound 729, 1-methyl-3-{4-[4-morpholin-4-yl-1-(2,2,2-trifluoroethyl)-1H-pyrazolo[3,4-d]pyrimidin-6-yl]phenyl}urea] | 194 | 225 | 600 |  |  |  |  |
| CCCOC(=O)N1CCC(n2ncc3c(N4CCOCC4)nc(-c4ccc(NC(=O)NCCF)cc4)nc32)CC1 [Compound 854, propyl 4-[6-(4-{[(2-fluoroethyl)carbamoyl]amino}phenyl)-4-morpholin-4-yl-1H-pyrazolo[3,4-d]pyrimidin-1-yl]piperidine-1-carboxylate] | 600 | 27 | 330 |  |  |  |  |
| CC(C)C(=O)N1CCC(n2ncc3c(N4CCOCC4)nc(-c4ccc(NC(=O)Nc5ccncc5)cc4)nc32)CC1 [Compound 829, 1-{4-[1-(1-isobutyrylpiperidin-4-yl)-4-morpholin-4-yl-1H-pyrazolo[3,4-d]pyrimidin-6-yl]phenyl}-3-pyridin-4-ylurea] | 38 | 25 | 29 |  |  |  |  |
| CNC(=NC#N)Nc1ccc(-c2nc(N3CCOCC3)c3cnn(C4CCN(C(=O)c5cccnc5)CC4)c3n2)cc1 [Example 412, 2-cyano-1-methyl-3-(4-{4-morpholin-4-yl-1-[1-(pyridin-3-ylcarbonyl)piperidin-4-yl]-1H-pyrazolo[3,4-d]pyrimidin-6-yl}phenyl)guanidine] | 382 | 3000 | 6000 |  |  |  |  |
| CCOC(=O)N1CCC(n2ncc3c(N4CCOC[C@H]4C)nc(-c4ccc(NC(=O)Nc5ccncc5)cc4)nc32)CC1 [Compound 893, ethyl 4-(4-[(3R)-3-methylmorpholin-4-yl]-6-{4-[(pyridin-4-ylcarbamoyl)amino]phenyl}-1H-pyrazolo[3,4-d]pyrimidin-1-yl)piperidine-1-carboxylate] | 517 | 5 | 180 |  |  |  |  |
| CCNC(=O)Nc1ccc(-c2nc(N3CCOCC3)c3cnn(C4CCN(Cc5cccnc5)CC4)c3n2)cc1 [Compound 563, 1-ethyl-3-(4-{4-morpholin-4-yl-1-[1-(pyridin-3-ylmethyl)piperidin-4-yl]-1H-pyrazolo[3,4-d]pyrimidin-6-yl}phenyl)urea] | 187 | < 27 | 27 |  |  |  |  |
| O=C(Nc1cccnc1)Nc1ccc(-c2nc(N3CCOCC3)c3cnn(C4CCN(Cc5cccnc5)CC4)c3n2)cc1F [Example 373, 1-(2-fluoro-4-{4-morpholin-4-yl-1-[1-(pyridin-3-ylmethyl)piperidin-4-yl]-1H-pyrazolo[3,4-d]pyrimidin-6-yl}phenyl)-3-pyridin-3-ylurea] | 55 | 40 | 200 |  |  |  |  |
